Test system: Plasmodium berghei
Assay: Luciferase/luciferin-expressing antifolate-resistant parasites were used to infect a culture of HepG2 cells that were pre-incubated with compounds. Infected hepatocytes emit light due to the luciferase reaction. Assay results are presented as the percent inhibition of light emission compared to control. […]
Assay type: functional
Settings: sporozoite; for IC90: read-out: LUCIFERASE INFECTION ASSAY - IC90
[1] = read-out: LUCIFERASE INFECTION ASSAY - IC50

Structure (SMILES) | IC90 [µM] | IC50 [1] [µM] | further results
Oc1cc2[nH]c3ccccc3c2cc1CN1CCN(Cc2cccs2)CC1 | > 10 | – | IC50 (HEPG2TOX_HILL_SLOPE 0.0488, HEPG2TOX_R_SQUARED 0.0234, PBLUC_HILL_SLOPE 24, PBLUC_R_SQUARED 0.263, read-out: LUCIFERASE INFECTION ASSAY - IC50): 9.5 µM
CC1CCCC(C)N1CCC(=O)NNC(=O)c1cc(-c2ccc(Cl)cc2)nc2ccccc12 (centres undefined) | > 10 | 7.66 | –
CCOC(=O)c1c(S(=O)(=O)Nc2ccc([N+](=O)[O-])cc2)c(-c2ccccc2)n(-c2ccccc2)c1C | > 6.53 | – | IC50 (HEPG2TOX_HILL_SLOPE 0.2, HEPG2TOX_R_SQUARED 0.0818, PBLUC_HILL_SLOPE 2.97, PBLUC_R_SQUARED 0.542, read-out: LUCIFERASE INFECTION ASSAY - IC50): > 6.53 µM
O=C(NCc1cc(Cl)c2c(c1)OCCCO2)c1cnn(Cc2ccccc2)c1 | > 10 | – | IC50 (HEPG2TOX_HILL_SLOPE 3.36, HEPG2TOX_R_SQUARED 0.962, PBLUC_HILL_SLOPE 1.54, PBLUC_R_SQUARED 0.197, read-out: LUCIFERASE INFECTION ASSAY - IC50): 9.57 µM
CCc1ccc(S(=O)(=O)Oc2ccccc2NC(C)=O)cc1 | > 10 | > 10 | –
N#CN=c1nc(/C=C/c2ccccc2Cl)[nH]c(-c2ccccc2O)n1 | 4.29 | – | IC50 (PBLUC_HILL_SLOPE 1.8, PBLUC_R_SQUARED 0.74, read-out: LUCIFERASE INFECTION ASSAY - IC50): 1.26 µM
CCOc1cc(C(=O)N/N=C2/C(=O)N(C(C)C)c3ccccc32)cc(OCC)c1OCC | > 10 | > 10 | –
Cc1nn(Cc2ccc(F)cc2)c2sc(C(=O)NCc3nnc4ccc(C(F)(F)F)cn34)cc12 | > 10 | > 10 | –
COc1cc(/C=C2\COC/C(=C\c3ccc(O)c(OC)c3)C2=O)ccc1O | > 8.96 | – | IC50 (HEPG2TOX_HILL_SLOPE 3.66, HEPG2TOX_R_SQUARED 0.976, PBLUC_HILL_SLOPE 1.71, PBLUC_R_SQUARED 0.466, read-out: LUCIFERASE INFECTION ASSAY - IC50): > 8.96 µM
CC(=N)C(C#N)c1csc(NC(=O)c2cc(-c3ccccc3)nc3c2cnn3C(C)C)n1 (centres undefined) | 9.99 | 6.35 | –
CCc1ccc(C2=NNC(=Nc3ccccc3F)SC2)s1 | > 10 | > 10 | –
Cc1ccc2c(Cl)cc(Cl)c(OCC(=O)N(C(C)C)C(C)C)c2n1 | > 10 | – | IC50 (PBLUC_HILL_SLOPE 0.984, PBLUC_R_SQUARED 0.0595, read-out: LUCIFERASE INFECTION ASSAY - IC50): > 10 µM
CC(C)[C@H](NC(=O)c1ccccc1Cl)C(=O)OC(C(=O)Nc1cccc(C(F)(F)F)c1)c1ccccc1 (some centres undefined) | > 10 | – | IC50 (HEPG2TOX_HILL_SLOPE 0.157, HEPG2TOX_R_SQUARED 0.175, read-out: LUCIFERASE INFECTION ASSAY - IC50): > 10 µM
O=C1CCCN1c1ccc(C2=NNC(=NC3CC3)SC2)cc1 | 0.932 | – | IC50 (FFLUC_HILL_SLOPE 1.46, FFLUC_R_SQUARED 0.93, PBLUC_HILL_SLOPE 0.517, PBLUC_R_SQUARED 0.899, read-out: LUCIFERASE INFECTION ASSAY - IC50): 0.0133 µM
FC(F)(F)Oc1cccc(-c2ccc3ncc(-c4cccs4)n3n2)c1 | > 10 | – | IC50 (PBLUC_HILL_SLOPE 2.85, PBLUC_R_SQUARED 0.222, read-out: LUCIFERASE INFECTION ASSAY - IC50): 9.07 µM
COc1ccc(CN=C2NN=C(c3cc4ccccc4o3)CS2)cc1 | 0.318 | – | IC50 (HEPG2TOX_HILL_SLOPE 1.33, HEPG2TOX_R_SQUARED 0.982, PBLUC_HILL_SLOPE 1.63, PBLUC_R_SQUARED 0.322, read-out: LUCIFERASE INFECTION ASSAY - IC50): 0.0829 µM
COc1ccc(NC(=O)c2cccc(C3(CNCc4ccc(F)c(F)c4)CC3)c2)cn1 | > 10 | – | IC50 (PBLUC_HILL_SLOPE 17.1, PBLUC_R_SQUARED 0.0793, read-out: LUCIFERASE INFECTION ASSAY - IC50): 9.92 µM
O=C(Nc1nc(-c2c[nH]c3ccccc23)cs1)C1CCN(S(=O)(=O)/C=C/c2ccccc2)CC1 | > 10 | – | IC50 (FFLUC_HILL_SLOPE 3.31, FFLUC_R_SQUARED 0.738, HEPG2TOX_HILL_SLOPE 1.04, HEPG2TOX_R_SQUARED 0.854, PBLUC_HILL_SLOPE 3.38, PBLUC_R_SQUARED 0.26, read-out: LUCIFERASE INFECTION ASSAY - IC50): 5.31 µM
O=C(Nc1ccc(-c2nc3ccccc3[nH]2)cc1)c1ccc(NC(=O)C2CC2)s1 | 0.674 | – | IC50 (HEPG2TOX_HILL_SLOPE 1.89, HEPG2TOX_R_SQUARED 0.991, PBLUC_HILL_SLOPE 4.29, PBLUC_R_SQUARED 0.909, read-out: LUCIFERASE INFECTION ASSAY - IC50): 0.404 µM
Oc1ccc(-c2cnc3cnc(-c4ccc(Cl)cc4)cn23)cc1 | 4.61 | – | IC50 (HEPG2TOX_HILL_SLOPE 2.24, HEPG2TOX_R_SQUARED 0.991, PBLUC_HILL_SLOPE 6.34, PBLUC_R_SQUARED 0.684, read-out: LUCIFERASE INFECTION ASSAY - IC50): 3.26 µM
COc1ccc(NCc2csc(-c3ccccc3)n2)cc1Cl | > 10 | > 10 | –

Structure (SMILES) | IC90 [µM] | IC50 [1] [µM] | further results
CCCn1c(-c2ccc(OC)cc2)nc2c(c(=O)c3ccccc3n2C)c1=O | 7.12 | – | IC50 (PBLUC_HILL_SLOPE 3.15, PBLUC_R_SQUARED 0.522, read-out: LUCIFERASE INFECTION ASSAY - IC50): 3.55 µM
CC(C)CCCC(C)NC(=O)CSCc1cccc(C(=O)O)c1 (centres undefined) | > 10 | > 10 | –
Cc1cc(-c2ccccc2)nc2c1/C(=N\O)CC(C)(C)C2 | > 11.8 | – | IC50 (HEPG2TOX_HILL_SLOPE 8.55, HEPG2TOX_R_SQUARED 0.808, PBLUC_HILL_SLOPE 3.52, PBLUC_R_SQUARED 0.12, read-out: LUCIFERASE INFECTION ASSAY - IC50): 8.87 µM
CC(C)c1cccc(Nc2ccc3nnc(C(F)(F)F)n3n2)c1 | > 10 | > 10 | –
Cc1ccc(CN(C)C(=O)C2CCN(c3ncnc4sc(C)c(C)c34)CC2)o1 | > 10 | – | IC50 (PBLUC_HILL_SLOPE 6.95, PBLUC_R_SQUARED 0.517, read-out: LUCIFERASE INFECTION ASSAY - IC50): 8.99 µM
COc1cc(-c2cccc(Nc3cccc(OC(F)(F)C(F)F)c3)n2)cc(OC)c1OC | > 7.29 | > 7.29 | –
c1csc(-c2cn3c(-c4ccsc4)cnc3cn2)c1 | > 11.6 | – | IC50 (PBLUC_HILL_SLOPE 10.9, PBLUC_R_SQUARED 0.0923, read-out: LUCIFERASE INFECTION ASSAY - IC50): > 11.6 µM
CCOC(=O)Cc1ccc(NC(=O)c2ccc(C(C)(C)C)cc2)cc1 | 2.02 | – | IC50 (HEPG2TOX_HILL_SLOPE 1.28, HEPG2TOX_R_SQUARED 0.763, PBLUC_HILL_SLOPE 1.21, PBLUC_R_SQUARED 0.784, read-out: LUCIFERASE INFECTION ASSAY - IC50): 0.329 µM
O=C(/C=C/c1csc(-c2ccc(Cl)cc2)n1)c1cccc(O)c1 | 4.93 | – | IC50 (PBLUC_HILL_SLOPE 11.6, PBLUC_R_SQUARED 0.644, read-out: LUCIFERASE INFECTION ASSAY - IC50): 4.08 µM
Cc1cc2oc(=O)cc(CN3CCC(c4c[nH]c5ccccc45)CC3)c2cc1C | > 10 | – | IC50 (FFLUC_HILL_SLOPE 22.3, FFLUC_R_SQUARED 0.464, read-out: LUCIFERASE INFECTION ASSAY - IC50): > 10 µM
O=C(OCc1cn(-c2ccccc2)nc1-c1ccccc1)c1ccc(N2CCOCC2)nc1 | > 10 | > 10 | –
Cc1cc(C)c(NC(=O)NCCCOCC(C)C)c(Cl)c1 | > 10 | > 10 | –
COc1ccccc1NS(=O)(=O)c1ccc2c(c1)N=Cc1c(C)nn(-c3ccc(Cl)cc3)c1O2 | > 10 | – | IC50 (HEPG2TOX_HILL_SLOPE 6.8, HEPG2TOX_R_SQUARED 0.772, PBLUC_HILL_SLOPE 15.5, PBLUC_R_SQUARED 0.126, read-out: LUCIFERASE INFECTION ASSAY - IC50): 9.36 µM
N#Cc1c(/N=C/c2ccccc2C(F)(F)F)sc2c1CCCCC2 | 7.41 | – | IC50 (FFLUC_HILL_SLOPE 1.19, FFLUC_R_SQUARED 0.84, PBLUC_HILL_SLOPE 1.29, PBLUC_R_SQUARED 0.776, read-out: LUCIFERASE INFECTION ASSAY - IC50): 1.35 µM
CN(CC(=O)Nc1nc(C23CC4CC(CC(C4)C2)C3)cs1)C(=O)c1ccco1 | 4.63 | – | IC50 (HEPG2TOX_HILL_SLOPE 8.2, HEPG2TOX_R_SQUARED 0.447, PBLUC_HILL_SLOPE 10.5, PBLUC_R_SQUARED 0.337, read-out: LUCIFERASE INFECTION ASSAY - IC50): 3.76 µM
COc1ccccc1Nc1nc(-c2c(-c3ccc(Cl)cc3Cl)noc2C)cs1 | 7.32 | 2.27 | –
O=C1CN(C(=O)COc2ccc(F)cc2Br)CCN1 | > 10 | > 10 | –
COc1ccccc1NS(=O)(=O)c1ccc(NNC(=S)Nc2cc(C)cc(C)c2)c([N+](=O)[O-])c1 | > 10 | – | IC50 (FFLUC_HILL_SLOPE 0.289, FFLUC_R_SQUARED 0.0194, HEPG2TOX_HILL_SLOPE 0.191, HEPG2TOX_R_SQUARED 0.347, PBLUC_HILL_SLOPE 3.05, PBLUC_R_SQUARED 0.49, read-out: LUCIFERASE INFECTION ASSAY - IC50): 5.73 µM
COc1cc(OC)c2[nH]c(C(=O)Nc3ccc(-n4cccn4)cc3)cc2c1 | > 10 | – | IC50 (PBLUC_HILL_SLOPE 2.78, PBLUC_R_SQUARED 0.238, read-out: LUCIFERASE INFECTION ASSAY - IC50): 6.45 µM
CCCCOc1ccc(C(=O)NCC(=O)N2CCN(C/C=C/c3ccccc3)CC2)cc1 | 7.33 | 5.03 | –
Cc1ccc(-n2c(C)cc(C(=O)Cn3nc(C)c(C)c(C#N)c3=O)c2C)cc1C | > 10 | – | IC50 (HEPG2TOX_HILL_SLOPE 1.5, HEPG2TOX_R_SQUARED 0.806, PBLUC_HILL_SLOPE 3.65, PBLUC_R_SQUARED 0.115, read-out: LUCIFERASE INFECTION ASSAY - IC50): 9.8 µM

From ChEMBL document CHEMBL4483862, “Open-source discovery of chemical leads for next-generation chemoprotective antimalarials” (2018)
